Laboratory results published in patent US8871728B2, “Non-peptide macrocyclic histone deacetylese (HDAC) inhibitors and methods of making and using thereof” (Georgia Tech Research Corporation, priority 2007, dated 2014).
Values after ≈ are worked out from the molar mass of the structure shown. Values joined by “and” are separate entries in the source; they are usually repeats but may differ in a detail not shown here. Equal entries are not always repeated. Where two headings read alike, the source gives them in different places.

Key:
[1] = tested on: promastigote stage of L. donovani; assay: Antileishmanial Alamar blue fluorometric assay; format: cell-based; settings: promastigotes
Protocol: (§1) The compounds described herein were also evaluated for parasitic activity against Plasmodium falciparum and Leismania donovani. P. falciparum and L. donovani are the causative parasites of malaria and leishmaniasis, two human diseases which constitute a serious threat to public health in tropical and sub-tropical countries. Antimalarial activity was evaluated in vitro using chloroquine-sensitive (D6, Sierra Leone) and chloroquine-resistant (W2, Indochina) strains of P. falciparum. Antileishmanial activity was evaluated in vitro against the promastigote stage of L. donovani.
(§2) Plasmodium growth inhibition was determined by a parasite lactate dehydrogenase assay using Malstat reagent. Inhibition of viability of the promastigote stage of L. donovani was determined using standard Alamar blue assay, modified to a fluorometric assay.
as §1, with “Macrocyclic histone deacetylase inhibitors” for “The compounds described herein”, “were” for “were also”
as §2

[2] = tested on: Plasmodium falciparum (D6 clone), chloroquine-sensitive; assay: Plasmodium growth inhibition, parasite lactate dehydrogenase assay (Malstat); format: cell-based; settings: for IC50: Plasmodium falciparum; for Plasmodium falciparum (D6 clone) IC50: chloroquine-sensitive
Protocol: as §1, §2
as §1, with “Macrocyclic histone deacetylase inhibitors” for “The compounds described herein”, “were” for “were also”
as §2

[3] = tested on: Plasmodium falciparum (W2 clone), chloroquine-resistant; assay: as above; format: cell-based; settings: for IC50: Plasmodium falciparum; for Plasmodium falciparum (W2 clone) IC50: chloroquine-resistant
Protocol: as §1, §2
as §1, with “Macrocyclic histone deacetylase inhibitors” for “The compounds described herein”, “were” for “were also”
as §2

[4] = tested on: HeLa nuclear extract HDAC1/2; assay: Fluor de Lys HDAC inhibition, HeLa nuclear extract; format: biochemical, human
From the text: Fluor de Lys™ is a fluorescence based HDAC activity assay comprising a combination of fluorogenic Histone deAcetylase Lysyl substrate and a developer. The kit is a highly sensitive and convenient alternative to radiolabeled, acetylated histones or peptide/HPLC methods for the assay of histone deacetylases. This assay is based on the ability of HeLa nuclear extract, which is enriched in HDAC activity, to mediate the deacetylation of the acetylated lysine side chain of the Fluor de Lys substrate. The assay procedure requires two steps. First, incubation of the HeLa nuclear extract with the Fluor de Lys substrate results in substrate deacetylation and thus sensitizes it to the second step. In the second step, treatment of the deacetylated substrate with the Fluor de Lys developer produces a fluorophore. The substrate-developer reaction, under normal circumstances goes to completion in less than 1 min at 25° C. The kit used was the Fluorimetric Assay/Drug Discovery Kit—AK-500 Manual Fluorescent Assay System available from BIOMOL® International, Plymouth Meeting, Pa.
Each IC50 value was obtained by averaging three independent experiments.

HDAC8 [5] = target: T1, HDAC8 (Homo sapiens (Human), UniProt Q9BY41); assay: Fluor de Lys HDAC8 inhibition; format: biochemical; settings: average of three independent experiments; Table 4; read-out: HDAC 8
HDAC1 = HDAC1 (Homo sapiens (Human), UniProt Q13547); assay: SAMDI mass spectrometry HDAC inhibition assay; format: biochemical; settings: at 10 μM, given if the IC50 was above 10 μM
Protocol: (§3) There is precedence that fluorescently labeled substrates can perturb enzyme activity and the effect of inhibitors. […] Additionally, 3-hydroxypyridine-2-ones are highly colored solids and might lead to false positive signals. Mindful of these facts, a label-free SAMDI (self-assembled monolayers for MALDI) mass spectrometry assay was also used to assess HDAC inhibition.
(§4) The SAMDI technique, wherein self-assembled monolayers (SAM) of alkanethiolates on gold are analyzed by matrix assisted laser desorption/ionization (MALDI) mass spectrometry, has been widely used to characterize many biochemical activities, including the deacetylase enzyme family.

HDAC8 [6] = target: T1, HDAC8; assay: SAMDI mass spectrometry HDAC inhibition assay; format: biochemical; settings: for inhibition at 10 µM / HDAC8 % inhibition: given if the IC50 was above 10 μM, at 10 μM; for HDAC8 inhibition, symbol / IC50: SAMDI; for IC50: read-out: HDAC8 IC50
Protocol: as §3, §4

HDAC6 = HDAC6 (Homo sapiens (Human), UniProt Q9UBN7); assay: SAMDI mass spectrometry HDAC inhibition assay; format: biochemical; settings: for HDAC6 inhibition, symbol / IC50: SAMDI; for inhibition at 10 µM: read-out: HDAC6 % inhibition; for IC50: read-out: HDAC6 IC50
Protocol: as §3
as §4, with “family. The SAMDI assay was used to measure the inhibition constant (K1) of fragments against HDAC1, HDAC6 and HDAC8 using a previously identified preferred HDAC substrate.” for “family.”

[7] = D6, chloroquine-sensitive, read-out: Plasmodium falciparum (D6 clone) IC50
[8] = W2, chloroquine-resistant, read-out: Plasmodium falciparum (W2 clone) IC50
[9] = HeLa nuclear extract, average of three independent experiments, Table 4, read-out: HDAC ½

Sequence of HDAC1 (Q13547 whole entry): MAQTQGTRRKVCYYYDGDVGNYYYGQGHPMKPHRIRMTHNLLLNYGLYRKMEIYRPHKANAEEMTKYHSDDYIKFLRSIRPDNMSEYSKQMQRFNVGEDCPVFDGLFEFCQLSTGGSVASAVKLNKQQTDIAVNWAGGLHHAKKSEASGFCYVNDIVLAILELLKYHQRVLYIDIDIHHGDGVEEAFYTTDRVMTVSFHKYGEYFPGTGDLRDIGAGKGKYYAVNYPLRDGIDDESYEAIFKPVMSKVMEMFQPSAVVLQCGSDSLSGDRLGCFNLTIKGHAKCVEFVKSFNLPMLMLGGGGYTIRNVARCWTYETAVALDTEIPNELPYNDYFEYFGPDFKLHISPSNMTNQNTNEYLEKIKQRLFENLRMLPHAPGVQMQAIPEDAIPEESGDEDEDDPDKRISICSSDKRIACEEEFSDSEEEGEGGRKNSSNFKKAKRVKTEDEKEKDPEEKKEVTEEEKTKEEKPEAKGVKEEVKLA
T1 sequence (Q9BY41 whole entry): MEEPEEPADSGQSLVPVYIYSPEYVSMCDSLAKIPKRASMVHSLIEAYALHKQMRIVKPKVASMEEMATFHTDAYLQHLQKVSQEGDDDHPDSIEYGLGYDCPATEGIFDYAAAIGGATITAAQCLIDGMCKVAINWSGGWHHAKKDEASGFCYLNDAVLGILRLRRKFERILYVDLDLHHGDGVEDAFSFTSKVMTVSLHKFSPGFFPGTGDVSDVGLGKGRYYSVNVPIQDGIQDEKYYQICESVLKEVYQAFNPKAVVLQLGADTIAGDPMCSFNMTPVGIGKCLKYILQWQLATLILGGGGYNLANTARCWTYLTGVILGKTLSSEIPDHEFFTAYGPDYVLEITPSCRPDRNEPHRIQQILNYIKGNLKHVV
Sequence of HDAC6 (Q9UBN7 whole entry): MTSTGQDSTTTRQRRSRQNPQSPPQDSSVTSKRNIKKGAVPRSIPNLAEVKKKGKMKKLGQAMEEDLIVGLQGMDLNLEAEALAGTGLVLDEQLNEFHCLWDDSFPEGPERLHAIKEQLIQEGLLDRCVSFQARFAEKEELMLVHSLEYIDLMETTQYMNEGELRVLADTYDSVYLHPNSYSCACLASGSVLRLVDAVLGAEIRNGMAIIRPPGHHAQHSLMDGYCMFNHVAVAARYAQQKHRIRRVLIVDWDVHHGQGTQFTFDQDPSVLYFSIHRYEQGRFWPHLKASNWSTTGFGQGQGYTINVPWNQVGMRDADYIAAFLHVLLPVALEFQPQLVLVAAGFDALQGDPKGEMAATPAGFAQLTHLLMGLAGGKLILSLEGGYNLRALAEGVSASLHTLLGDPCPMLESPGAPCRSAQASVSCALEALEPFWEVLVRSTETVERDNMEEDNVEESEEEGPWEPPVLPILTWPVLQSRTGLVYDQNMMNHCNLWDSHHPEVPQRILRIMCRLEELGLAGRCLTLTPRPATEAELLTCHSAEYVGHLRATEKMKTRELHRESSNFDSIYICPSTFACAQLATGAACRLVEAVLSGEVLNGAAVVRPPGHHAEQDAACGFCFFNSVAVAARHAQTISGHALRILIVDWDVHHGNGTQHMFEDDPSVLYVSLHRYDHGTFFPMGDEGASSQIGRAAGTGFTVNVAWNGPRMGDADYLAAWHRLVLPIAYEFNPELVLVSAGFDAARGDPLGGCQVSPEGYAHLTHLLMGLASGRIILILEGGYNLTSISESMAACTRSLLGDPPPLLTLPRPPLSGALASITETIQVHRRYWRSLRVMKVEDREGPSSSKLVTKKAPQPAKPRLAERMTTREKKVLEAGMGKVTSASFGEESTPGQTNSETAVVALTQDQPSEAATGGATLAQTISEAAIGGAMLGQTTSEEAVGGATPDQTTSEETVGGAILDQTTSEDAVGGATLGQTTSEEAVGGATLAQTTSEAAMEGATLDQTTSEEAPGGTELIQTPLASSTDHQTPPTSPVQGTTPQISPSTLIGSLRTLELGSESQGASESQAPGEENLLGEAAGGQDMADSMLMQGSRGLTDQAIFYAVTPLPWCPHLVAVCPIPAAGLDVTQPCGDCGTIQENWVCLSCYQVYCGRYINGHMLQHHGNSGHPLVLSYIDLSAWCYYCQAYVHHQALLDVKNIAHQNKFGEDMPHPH

Structure (SMILES): C[C@@H]1[C@H](O)[C@@H](C)/C=C/C=C/C=C/C=C/C=C/C=C/C=C/[C@H](O[C@@H]2O[C@H](C)[C@@H](O)[C@H](N)[C@@H]2O)C[C@@H]2O[C@](O)(C[C@@H](O)C[C@@H](O)[C@H](O)CC[C@@H](O)C[C@@H](O)CC(=O)O[C@H]1C)C[C@H](O)[C@H]2C(=O)O [Amphotericine B, Amphotericin B, reference compound]
- Antileshmanial activity IC90 [1]: 0.32 µg/mL and 0.3 µg/mL

Structure (SMILES): C[C@@H]1CC[C@H]2[C@@H](C)C(=O)O[C@@H]3O[C@@]4(C)CC[C@@H]1[C@]32OO4 [Artemisinin, artemisinin, reference compound]
- IC50 [2, 7]: 0.004 µg/mL (≈ 0.0142 µM)
- Plasmodium falciparum (D6 clone) IC50 [2]: 0.006 µg/mL
- IC50 [3, 8]: 0.006 µg/mL (≈ 0.0213 µM)
- Plasmodium falciparum (W2 clone) IC50 [3]: 0.009 µg/mL

Structure (SMILES): CCN(CC)CCCC(C)Nc1ccnc2cc(Cl)ccc12 (stereo not drawn) [Chloroquine, chloroquine, reference compound]
- IC50 ([2]; D6, read-out: Plasmodium falciparum (D6 clone) IC50 (μg/ml), chloroquine-sensitive): 0.017 µg/mL (≈ 0.0531 µM)
- Plasmodium falciparum (D6 clone) IC50 [2]: 0.011 µg/mL
- IC50 ([3]; W2, read-out: Plasmodium falciparum (W2 clone) IC50 (μg/ml), chloroquine-resistant): 0.125 µg/mL (≈ 0.391 µM)
- Plasmodium falciparum (W2 clone) IC50 [3]: 0.14 µg/mL

Structure (SMILES): C=C1C[C@H](CC)C(C)(C)[C@H](C)[C@@H](C)N(C)C[C@H](C)CC(C)(C)[C@H](C[C@@H]2C[C@H](C)C[C@H](N(C)Cc3ccc(C(C)C)cc3)[C@H]2C)[C@@H](C)[C@H](C)[C@H]1C [Compd 4]
- IC50 ([4]; Table 8, read-out: HDAC Inhibition IC50): 88.8 nM
- IC50 [2, 7]: 1.3 µg/mL (≈ 1.88 µM)
- S.I. D6 ([2]; selective toxicity index, Vero versus D6): > 3.7
- IC50 [3, 8]: 1.7 µg/mL (≈ 2.46 µM)
- S.I. (W2) ([3]; selective toxicity index, Vero versus W2, value in brackets): > 2.8

Structure (SMILES): CC[C@H]1OC(=O)[C@H](C)[C@@H](O[C@H]2C[C@@](C)(OC)[C@@H](O)[C@H](C)O2)[C@H](C)[C@@H](O[C@@H]2O[C@H](C)C[C@H](N(C)Cc3ccc(-c4cn(CCCCCCCCCC(=O)NO)nn4)cc3)[C@H]2O)[C@](C)(OC)C[C@@H](C)C(=O)[C@H](C)[C@@H](O)[C@]1(C)O [Compound 30, Clarithromycin-N-Phenyltriazolyldecahydroxamic acid]
- IC50 [4, 9]: 223 nM

Structure (SMILES): CC[C@H]1OC(=O)[C@H](C)[C@@H](O[C@H]2C[C@@](C)(OC)[C@@H](O)[C@H](C)O2)[C@H](C)[C@@H](O[C@@H]2O[C@H](C)C[C@H](N(C)Cc3ccc(NC(=O)CCCCCCC(=O)NO)cc3)[C@H]2O)[C@](C)(O)C[C@@H](C)CN(C)[C@H](C)[C@@H](O)[C@]1(C)O [Compound 36, Azithromycin-arylalkyl hydroxamic acid]
- IC50 [4, 9]: 107 nM
- IC50 (HDAC8 [5]): 6680 nM

Structure (SMILES): CC[C@H]1OC(=O)[C@H](C)[C@@H](O)[C@H](C)[C@@H](O[C@@H]2O[C@H](C)C[C@H](N(C)Cc3ccc(NC(=O)CCCCCCC(=O)NO)cc3)[C@H]2O)[C@](C)(O)C[C@@H](C)CN(C)[C@H](C)[C@@H](O)[C@]1(C)O [Compound 38, Desclasinose-azithromycin-arylalkyl hydroxamic acid]
- IC50 [4, 9]: 110 nM
- IC50 (HDAC8 [5]): 2320 nM

Structure (SMILES): O=c1c(O)cccn1CCn1cc(-c2ccccc2)nn1 [Compound 159a, 1-Phenyltriazolylethyl-3-hydroxypyridine-2-one]
- inhibition at 10 µM (HDAC1): 12%
- inhibition at 10 µM (HDAC8 [6]): 15%
- HDAC6 inhibition, symbol (HDAC6): NI (No significant Inhibition (below 20% Inhibition))

Structure (SMILES): O=c1c(O)cccn1CCCn1cc(-c2ccccc2)nn1 [Compound 159b, 1-Phenyltriazolylpropyl-3-hydroxypyridine-2-one]
- inhibition at 10 µM (HDAC1): 8%
- inhibition at 10 µM (HDAC8 [6]): 47%
- inhibition at 10 µM (HDAC6): 41%

Structure (SMILES): O=c1c(O)cccn1CCCCn1cc(-c2ccccc2)nn1 [Compound 159c, 1-Phenyltriazolylbutyl-3-hydroxypyridine-2-one]
- HDAC1 % inhibition (HDAC1): 12%
- inhibition at 10 µM (HDAC1): 15%
- HDAC8 % inhibition (HDAC8 [6]): 5%
- inhibition at 10 µM (HDAC8 [6]): 10%
- HDAC6 inhibition, symbol (HDAC6): NI (No significant Inhibition (below 20% Inhibition))

Structure (SMILES): O=c1c(O)cccn1CCCCCn1cc(-c2ccccc2)nn1 [Compound 159d, 1-Phenyltriazolylpentyl-3-hydroxypyridine-2-one]
- HDAC1 % inhibition (HDAC1): 43%
- HDAC8 % inhibition (HDAC8 [6]): 30%
- HDAC6 inhibition, symbol (HDAC6): NI (No significant Inhibition (below 20% Inhibition))

Structure (SMILES): O=c1c(O)cccn1CCCCCCCn1cc(-c2ccccc2)nn1 [Compound 159f, 1-Phenyltriazolylheptyl-3-hydroxypyridine-2-one]
- HDAC1 % inhibition (HDAC1): 2%
- HDAC8 % inhibition (HDAC8 [6]): 42%
- HDAC6 % inhibition (HDAC6; at 10 μM, given if the IC50 was above 10 μM): 34%

Structure (SMILES): Oc1cccn(CCn2cc(-c3ccccc3)nn2)c1=S [Compound 161, 1-Phenyltriazolylethyl-3-hydroxypyridine-2-thione]
- inhibition at 10 µM (HDAC1): 21%
- inhibition at 10 µM (HDAC8 [6]): 56%
- inhibition at 10 µM (HDAC6): 14%

Structure (SMILES): Cc1ccc(-c2cn(CCCCCn3cccc(O)c3=O)nn2)cc1 [Compound 166a, 1-(4-Tolyl)triazolylpentyl-3-hydroxypyridine-2-one]
- inhibition at 10 µM (HDAC1): 66%
- inhibition at 10 µM (HDAC8 [6]): 15%
- HDAC6 inhibition, symbol (HDAC6): NI (No significant Inhibition (below 20% Inhibition))

Structure (SMILES): Cc1cccc(-c2cn(CCCCCn3cccc(O)c3=O)nn2)c1 [Compound 166b, 1-(3-Tolyl)triazolylpentyl-3-hydroxypyridine-2-one]
- inhibition at 10 µM (HDAC1): 88%
- HDAC8 inhibition, symbol (HDAC8 [6]): NI (No significant Inhibition (below 20% Inhibition))
- HDAC6 inhibition, symbol (HDAC6): NI (No significant Inhibition (below 20% Inhibition))

Structure (SMILES): N#Cc1ccc(-c2cn(CCCCCn3cccc(O)c3=O)nn2)cc1 [Compound 166d, 1-(4-Benzonitrile)triazolylpentyl-3-hydroxypyridine-2-one]
- inhibition at 10 µM (HDAC1): 70%
- inhibition at 10 µM (HDAC8 [6]): 26%
- HDAC6 inhibition, symbol (HDAC6): NI (No significant Inhibition (below 20% Inhibition))

Structure (SMILES): N#Cc1cccc(-c2cn(CCCCCn3cccc(O)c3=O)nn2)c1 [Compound 166e, 1-(3-Benzonitrile)triazolylpentyl-3-hydroxypyridine-2-one]
- inhibition at 10 µM (HDAC1): 71%
- HDAC8 inhibition, symbol (HDAC8 [6]): NI (No significant Inhibition (below 20% Inhibition))
- HDAC6 inhibition, symbol (HDAC6): NI (No significant Inhibition (below 20% Inhibition))

Structure (SMILES): CN(C)c1ccc(-c2cn(CCCCCn3cccc(O)c3=O)nn2)cc1 [Compound 166f, 1-(4-(N,N-dimethylaniline))triazolylpentyl-3-hydroxypyridine-2-one]
- inhibition at 10 µM (HDAC1): 59%
- inhibition at 10 µM (HDAC8 [6]): 28%
- HDAC6 inhibition, symbol (HDAC6): NI (No significant Inhibition (below 20% Inhibition))

Structure (SMILES): N#Cc1ccc(-c2cn(CCCCCn3cccc(O)c3=O)nn2)cc1C(F)(F)F [Compound 166g, 1-(4-(3-Trifluomethyl)-benzonitrile)triazolylpentyl-3-hydroxypyridine-2-one]
- inhibition at 10 µM (HDAC1): 71%
- inhibition at 10 µM (HDAC8 [6]): 14%
- HDAC6 inhibition, symbol (HDAC6): NI (No significant Inhibition (below 20% Inhibition))

Structure (SMILES): N#Cc1ccc(-c2cn(CCCCCn3cccc(O)c3=S)nn2)cc1 [Compound 167d, 1-(4-Benzonitrile)triazolylpentyl-3-hydroxypyridine-2-thione]
- inhibition at 10 µM (HDAC1): 33%
- IC50 (HDAC8 [6]): 1460 nM
- IC50 (HDAC6): 905 ± 249 nM

Structure (SMILES): CN(C)c1ccc(-c2cn(CCCCCn3cccc(O)c3=S)nn2)cc1 [Compound 167f]
- inhibition at 10 µM (HDAC1): 28%
- IC50 (HDAC8 [6]): 1480 nM
- IC50 (HDAC6): 1010 ± 425 nM

Structure (SMILES): N#Cc1ccc(-c2cn(CCCCCn3cccc(O)c3=S)nn2)cc1C(F)(F)F [Compound 167g, 1-(4-(3-Trifluomethyl)-benzonitrile)triazolylpentyl-3-hydroxypyridine-2-thione]
- inhibition at 10 µM (HDAC1): 55%
- IC50 (HDAC8 [6]): 2260 nM
- IC50 (HDAC6): 661 ± 121 nM
